According to US9683014B2, “Dipeptide mimetics of NGF and BDNF neurotrophins” (UCHREZHDENIE ROSSIISKOI AKADEMII MEDITSYNSKIKH NAUK …, priority 2009, dated 2017):
Marks after values point to notes of the source that are not given here.

Columns and labels:
Wistar rats = conditions: 1.0 mg/kg i.p. 24 h prior to scopolamine 1.0 mg/kg s.c.; FIG. 2.11
Protocol: Male Wistar rats weighing 190-220 g were used for this experiment. The test compound was administered intraperitoneally at a dose of 1.0 mg/kg at 24 hours prior to the scopolamine injection (1.0 mg/kg s.c.). The control group was treated with distilled water according to the same regimen. Scopolamine was injected 60 min before placing the animals in a T-shaped maze. Following a further 120 min the animals were subjected to testing in accordance with the original protocol (Deacon R. M. J., Rawlins J. N. P. T-maze alternation in the rodent. Nature Protocols, 2006, 1(1), 7-12).

C57B1/6 mice = conditions: 1.0 mg/kg i.p. 24 h prior to MPTP 30 mg/kg i.p.; 60 min after MPTP; active control 8
Protocol: The test compound was administered intraperitoneally to male C57B1/6 mice weighing 22-25 g at a preselected dose of 1.0 mg/kg at 24 hours prior to the MPTP injection (30 mg/kg i.p.). The animals were placed in the open-field device 60 min after the MPTP injection. Animal's horizontal and vertical motor activities were monitored for 2 minutes. Passive control group was represented by animals treated with distilled water instead of MPTP. […] The treatment group was treated with GK-2 followed by MPTP. Statistical data treatment was carried out using the Mann-Whitney U-test.

[1] = tested on: rats with bilateral ligation of the carotid artery; conditions: 1 mg/kg i.p.
Protocol: (§1) The experiments were conducted on male outbred rats weighing 350-420 g. The test compound was administered intraperitoneally at a dose of 1 mg/kg. On day 1 the animals were given the first injection of the test compound. 24 hours later (day 2) they underwent surgery for a bilateral ligation of the carotid artery. Following another 24 h (day 3) the animals were given the second injection of the test compound. 96 hours later (day 7) they were given the third injection of the test compound. Following another 24 h (day 8) the animals were tested in an open field test (Jackson H. F., Broadhurst P. L. The effects of parachlorophenylalanine and stimulus intensity on open-field test measures in rats. Neuropharmacology, 1982, 21, 1279-1282). On the next day (day 9) they were allowed to explore new objects (a modification of the test described in Ennaceur A., Delacour J. A new one-trial test for neurobiological studies of memory in rats. 1: Behavioral data. Behavioral Brain Research, 1988, 31, 47-59). On day 11 the animals were given the fourth injection of the test compound. The animals were sacrificed by decapitation 120 hours after the last injection of the test compound (day 16).
(§2) The rats were distributed into 3 groups (n≧8 for each group) at random. Group 1 (sham-operated) comprised animals that were anesthetized followed by a sham operation and subsequently received 4 injections of physiological saline according to the experimental set-up; Group 2 (ligation) comprised animals that were anesthetized followed by surgery for a bilateral ligation of the carotid artery and subsequently received 4 injections of saline according to the experimental set-up; Group 3 (ligation+test compound) comprised animals that were anesthetized followed by surgery for a bilateral ligation of the carotid artery and subsequently received 4 injections of the test compound according to the experimental set-up.

[2] = tested on: rat cerebral cortex cells; conditions: 1 mg/kg i.p., 4 injections; cells isolated day 16; FIG. 2.9
Protocol: as §1, §2

PC12 cell line = test: Cellular model of Parkinson's disease (MPTP, MTT test); assay type: cell-based, rat
Protocol: To produce a model for Parkinson's disease, MPTP was used at a final concentration of 1 mM (Shimoke K., Chiba H. Nerve growth factor prevents 1-methyl-[…]-1,2,3,6-tetrahydropyridine-induced cell death via the Akt pathway by suppressing caspase-3-like activity using PC12 cells: relevance to therapeutic application for Parkinson's disease. J. Neurosci. Res. 2001, 63, 402-409). MPTP was added to the cell growth medium containing 1% FBS at 24 hours after passage. The peptides were added to the cell growth medium concurrently with MPTP or 24 h before MPTP. Cell viability was determined at 24 h using an MTT test.

NCCCC[C@H](NC(=O)[C@H](CCC(=O)O)NC(=O)CCC(=O)O)C(=O)NCCCCCCNC(=O)[C@H](CCCCN)NC(=O)[C@H](CCC(=O)O)NC(=O)CCC(=O)O [GK-2, bis-(N-monosuccinyl-glutamyl-lysine) hexamethylenediamide]
scopolamine-induced working memory impairment (spontaneous alternation, T-maze) (Wistar rats): could prevent | Number of sectors crossed (% of passive control) (C57B1/6 mice): 38*^+ % of passive control | horizontal motor activity in the open field test ([1]; day 8, ligation reduced it, FIG. 2.5): restored it to the level found in the sham-operated rats | vertical motor activity in the open field test ([1]; day 8, ligation reduced it, FIG. 2.6): restored it to the level found in the sham-operated rats | total object smelling time and first-minute object exploration ([1]; day 9, FIGS. 2.7, 2.8): not different from the sham-operated rats | viability of the cortical cells (MTT) [2]: enhanced | protective effect against MPTP (PC12 cell line; added 24 hours prior to MPTP 1 mM): active at both 10^−5 M and 10^−8 M | protective effect against MPTP (PC12 cell line; added concurrently with MPTP 1 mM, 10^−5 M and 10^−8 M tested): only at 10^−5 M
